Patent US9089572B2, “Inhibitors of p97” (California Institute of Technology, priority 2008, dated 2015)

Legend:
[1] = target: T532C-Cdc48 (Saccharomyces cerevisiae, UniProt P25694, T532C); assay: In vitro ATP hydrolysis (malachite green ATPase assay), T532C-Cdc48; format: biochemical, yeast
Experimental: (§1) Compounds were tested for their ability to inhibit the ATPase activity of purified wild type murine p97 and T532C-Cdc48, a mutant of yeast Cdc48 in which the residue analogous to cysteine 522, threonine 532, was converted to cysteine.
(§2) To determine whether cysteine 522 is necessary for inhibition of p97 by compound 2, a mutant of p97 was constructed in which cysteine 522 was converted to either alanine (C522A-mp97) or threonine (C522T-mp97). The IC50 values of compound 2 were measured the against various enzymes during a 20-minute preincubation (see Table 2). Mutation of cysteine 522 in p97 to either alanine or threonine decreased sensitivity to compound 2 by greater than 100-fold. On the other hand, yeast Cdc48, which normally is quite resistant to compound 2, became nearly 30-fold more sensitive to the compound upon introduction of a cysteine in place of threonine 532.

[2] = target: T1, C522T-mp97 (Mus musculus, UniProt Q01853, C522T); assay: In vitro ATP hydrolysis, C522T-mp97 mutant; format: biochemical, murine; details: 20-minute preincubation
T1 construct: made in house
T1 sequence (Q01853 whole entry C522T): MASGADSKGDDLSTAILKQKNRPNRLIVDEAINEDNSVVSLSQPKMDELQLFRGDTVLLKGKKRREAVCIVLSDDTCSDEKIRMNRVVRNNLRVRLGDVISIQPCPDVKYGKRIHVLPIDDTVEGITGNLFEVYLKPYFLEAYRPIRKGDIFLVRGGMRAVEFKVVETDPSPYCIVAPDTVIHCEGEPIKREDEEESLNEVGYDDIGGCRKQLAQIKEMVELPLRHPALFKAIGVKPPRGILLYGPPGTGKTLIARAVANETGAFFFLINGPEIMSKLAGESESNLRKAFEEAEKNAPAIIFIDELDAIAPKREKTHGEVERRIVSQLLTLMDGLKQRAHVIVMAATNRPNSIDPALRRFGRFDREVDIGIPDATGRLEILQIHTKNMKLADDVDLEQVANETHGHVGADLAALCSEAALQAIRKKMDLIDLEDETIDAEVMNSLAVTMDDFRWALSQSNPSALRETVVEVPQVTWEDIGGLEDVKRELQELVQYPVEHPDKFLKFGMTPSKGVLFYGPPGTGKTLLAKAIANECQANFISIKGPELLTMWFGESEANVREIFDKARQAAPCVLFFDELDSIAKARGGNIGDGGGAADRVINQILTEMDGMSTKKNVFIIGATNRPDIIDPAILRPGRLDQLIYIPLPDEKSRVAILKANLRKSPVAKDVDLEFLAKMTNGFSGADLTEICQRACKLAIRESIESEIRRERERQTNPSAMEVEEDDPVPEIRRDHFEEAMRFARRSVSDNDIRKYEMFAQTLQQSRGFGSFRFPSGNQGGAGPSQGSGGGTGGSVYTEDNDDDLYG
Experimental: as §1, §2

[3] = system: HeLa cells; assay: Accumulation of high molecular weight ubiquitin conjugates (anti-ubiquitin immunoblot), HeLa cells; format: cell-based; details: 1 h at 37° C.
Excerpt: (§3) To evaluate whether compound 2 can target p97 activity in cells, we sought to determine whether this compound induces accumulation of high molecular weight ubiquitin conjugates, since it is known that RNAi-mediated knockdown of p97 in mammalian cells has this effect (Wojcik, C. et al. J. Cell Sci. (2004) 117, 281-292). As a positive control for this experiment, the proteasome inhibitor MG132 was used. […] The cells were then harvested, lysed, and centrifuged to generate soluble and insoluble fractions. These fractions were then immunoblotted with anti-ubiquitin antibodies to detect accumulation of high molecular weight conjugates. Blots were also probed with anti-PSTAIRE antibodies as a loading control. […] This effect is particularly pronounced in the insoluble fraction.
(§4) To evaluate whether compound 8 can target p97 activity in cells, it was determined whether this compound induces accumulation of high molecular weight ubiquitin conjugates, since it is known that RNAi-mediated knockdown of p97 in mammalian cells has this effect (Wojcik, C. et al. J. Cell Sci. (2004) 117, 281-292). The proteasome inhibitor bortezomib (velcade) was employed as a positive control for this experiment. HeLa (FIG. 25) or RPMI8226 (FIG. 26) cells were treated with Velcade, compound 8, or a combination thereof for 1 h at 37° C. The cells were then harvested and cell lysates were immunoblotted with anti-ubiquitin antibodies to detect accumulation of high molecular weight conjugates. Blots were also probed with anti-PSTAIRE antibodies as a loading control.

[4] = system: RPMI8226 cells; assay: Accumulation of high molecular weight ubiquitin conjugates (anti-ubiquitin immunoblot), RPMI8226 cells; format: cell-based; details: 1 h at 37° C.
Excerpt: as §3, §4

[5] = system: Human 26S proteasome; assay: Hydrolysis of fluorogenic proteasome substrate LLVY-AMC by purified 26S proteasome; format: biochemical; details: 19 nM 26S proteasome, 30 min preincubation, 60 μM LLVY-AMC
Experimental: Purified human 26S proteasome (19 nM) was incubated with either DMSO, MG132 or compound 2 for 30 min at room temperature and fluorogenic proteasome substrate LLVY-AMC (60 μM) was added to initiate the reaction. Fluorescence intensity was monitored every 3 min over 30 min.

[6] = system: Ub-G76V-GFP/HeLa cells; assay: Degradation of pre-accumulated Ub-G76V-GFP (cycloheximide chase after MG132 washout); format: cell-based; details: for % K: relative to 0 μM
Experimental: To evaluate this possibility, an assay was developed to determine the rate of degradation of pre-accumulated Ub-G76V-GFP molecules. […] Cells were then washed with PBS three times remove the MG132. Cells were then refreshed by adding DMEM containing cycloheximide (50 μg/mL; to block production of more Ub-G76V-GFP) and test compounds (0˜10 μM) were added into cells. Eight 96-well plates were prepared and one of the plates was imaged at 25, 50, 70, 100, 110, 125, 145, or 170 min after washing with PBS three times. After washing out MG132, degradation of pre-accumulated Ub-G76V-GFP appears to follow pseudo-first order reaction. Rate constant (K; 1/min) can be determined from the slope of plotting Ln (Fold Accumulation) versus Time (min) (see FIG. 17 and FIG. 18).
Ub-G76V-GFP/HeLa cells were treated with MG132 (2 μM) for 1 h and washed with PBS three times. DMEM containing cycloheximide (50 μg/mL) and compound 8 (0-10 μM) was added into cells. Eight 96-well plates were prepared and one of the plates was imaged at 25, 50, 70, 100, 110, 125, 145, or 170 min after washing with PBS three times.

[7] = system: MDAMB-231; assay: MTT cell growth assay, MDAMB-231; format: cell-based; details: Homo sapiens, MDA-MB-231, 48 or 72 h, read-out: Cell line inhibition of growth GI50 MDAMB-231
Experimental: (§5) To probe further the effect of compound 2 and related compounds 1, 3, 5, 6 and 7, various concentrations of these compounds were added to 13 different cell lines and incubated for 48 or 72 h. An MTT assay was then performed to evaluate cell growth and survival.

[8] = system: RPMI8226; assay: MTT cell growth assay, RPMI8226; format: cell-based; details: Homo sapiens, RPMI-8226, 48 or 72 h, read-out: Cell line inhibition of growth GI50 RPMI8226
Experimental: as §5

[9] = system: RL; assay: MTT cell growth assay, RL; format: cell-based; details: Homo sapiens, 48 or 72 h, read-out: Cell line inhibition of growth GI50 RL
Experimental: as §5

[10] = system: Molt4; assay: MTT cell growth assay, Molt4; format: cell-based; details: Homo sapiens, MOLT-4, 48 or 72 h, read-out: Cell line inhibition of growth GI50 Molt4
Experimental: as §5

[11] = system: LNCaP; assay: MTT cell growth assay, LNCaP; format: cell-based; details: Homo sapiens, 48 or 72 h, read-out: Cell line inhibition of growth GI50 LNCaP
Experimental: as §5

[12] = system: PC3; assay: MTT cell growth assay, PC3; format: cell-based; details: Homo sapiens, PC-3, 48 or 72 h, read-out: Cell line inhibition of growth GI50 PC3
Experimental: as §5

[13] = system: 13 different cell lines; assay: MTT cell growth assay, summary across 13 different cell lines; format: cell-based; details: read-out: 50% inhibition of growth (GI50) across the 13 different cell lines; range across 13 cell lines
Experimental: as §5
Data for the assay with MCF-7 cells and HeLa cells is shown in FIG. 21 and FIG. 22, respectively. […] Thus, compound 2 blocks p97-dependent processes in cells and also blocks the proliferation of cancer cell lines, illustrating its potential utility as an anti-proliferative drug to treat cancer.

Chain of T532C-Cdc48 (P25694 whole entry T532C): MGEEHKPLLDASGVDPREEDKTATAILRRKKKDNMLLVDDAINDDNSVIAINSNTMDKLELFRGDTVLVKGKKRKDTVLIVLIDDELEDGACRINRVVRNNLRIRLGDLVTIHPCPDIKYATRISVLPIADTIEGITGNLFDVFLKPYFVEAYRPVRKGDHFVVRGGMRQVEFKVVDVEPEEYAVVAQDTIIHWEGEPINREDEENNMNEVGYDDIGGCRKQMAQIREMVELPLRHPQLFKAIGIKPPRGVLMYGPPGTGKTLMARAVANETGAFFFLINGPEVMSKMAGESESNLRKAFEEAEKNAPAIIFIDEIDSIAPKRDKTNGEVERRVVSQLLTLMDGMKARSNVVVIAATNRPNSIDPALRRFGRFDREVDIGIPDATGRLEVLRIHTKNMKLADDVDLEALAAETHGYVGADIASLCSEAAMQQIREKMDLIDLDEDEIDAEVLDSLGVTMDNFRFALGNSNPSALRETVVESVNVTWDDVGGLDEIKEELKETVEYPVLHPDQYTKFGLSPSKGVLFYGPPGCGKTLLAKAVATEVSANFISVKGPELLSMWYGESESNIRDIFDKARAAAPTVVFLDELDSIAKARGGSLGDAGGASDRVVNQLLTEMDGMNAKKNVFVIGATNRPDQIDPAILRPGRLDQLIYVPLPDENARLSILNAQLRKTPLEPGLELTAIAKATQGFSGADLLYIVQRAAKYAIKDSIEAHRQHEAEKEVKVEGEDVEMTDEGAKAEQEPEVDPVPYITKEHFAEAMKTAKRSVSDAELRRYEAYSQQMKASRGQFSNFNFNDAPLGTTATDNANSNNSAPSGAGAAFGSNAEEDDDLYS

For C=CC(=O)Nc1ncnc2c1c(-c1ccccc1)nn2C(C)(C)C [Compound 2], the IC50 [1] was 14 ± 5 µM, the “increase in sensitivity of yeast Cdc48 on introduction of cysteine in place of threonine 532” value ([1]; T532C-Cdc48 vs yeast Cdc48) was about 30 fold and the IC50 [2] was 82 ± 45 µM. The “accumulation of high molecular weight ubiquitin conjugates, HeLa cells” value [3] was “caused accumulation of high molecular weight ubiquitin conjugates”, the “accumulation of high molecular weight ubiquitin conjugates, RPMI8226 cells” value [4] was “caused accumulation of high molecular weight ubiquitin conjugates” and the “inhibition of hydrolysis of proteasome substrate LLVY-AMC” value [5] was “does not inhibit hydrolysis”. The “K, rate constant of Ub-G76V-GFP degradation” value (“K, rate constant” below) ([6]; 0.01 μM) was 0.0318 min⁻¹, the “% K” value ([6]; 0.01 μM) was 83% and the “K, rate constant” value ([6]; 0.04 μM) was 0.0306 min⁻¹. The “% K” value ([6]; 0.04 μM) was 80%, the “K, rate constant” value ([6]; 0.16 μM) was 0.0292 min⁻¹ and the “% K” value ([6]; 0.16 μM) was 76%. For the same compound, the “K, rate constant” value ([6]; 0.63 μM) was 0.0237 min⁻¹, the “% K” value ([6]; 0.63 μM) was 62% and the “K, rate constant” value ([6]; 2.5 μM) was 0.0189 min⁻¹. The “% K” value ([6]; 2.5 μM) was 49%, the “K, rate constant” value ([6]; 10 μM) was 0.0015 min⁻¹ and the “% K” value ([6]; 10 μM) was 4%. It also gave an IC50 ([6]; Homo sapiens, HeLa, 1 h, read-out: IC50 on the decay of Ub-G76V-GFP) of 1.25 ± 0.47 µM, a GI50 [7] of 1.7 ± 0.3 µM and a GI50 [8] of 0.4 ± 0.1 µM. For the same compound, the GI50 [9] was 2.1 ± 1.1 µM, the GI50 [10] was 1.1 ± 0.5 µM and the GI50 [11] was 2.7 ± 1.2 µM. It also gave a GI50 [12] of 2.2 ± 1.1 µM and a GI50 [13] of 0.4 to 5.1 µM.
